How the values were obtained:
[1] = asthmatics, double-blind randomized control trial; cited from earlier work
[2] = Case report: diffused essential oils after NAC and Dornase Alfa in a child with RSV, oxygen requirement and atelectasis; assay type: in vivo, human; conditions: for Overall response of oxygen requirement to treatment: summary of the case
From the text: They experienced a three day prodrome of upper and lower respiratory symptoms and increasing oxygen requirement treated initially at home. They were admitted to a local hospital 7 days prior to the current admission where they continued to received oxygen and was started on a 7 day antibiotic course despite a positive respiratory direct fluorescent antibody test for RSV. They were discharged home on 3 liters oxygen and persistent left upper lobe atelectasis. They presented to our pediatric intensive care unit (PICU) within 12 hours of discharge with respiratory distress and central cyanosis, pulse oximetry oxygen saturation (spO2) 83% off oxygen, 88% on 3 liters per minute (LPM) oxygen.
Past medical history was significant for titanium rib insertion for restrictive lung disease, metal rods for thoracic scoliosis, hip repair for hip dislocation, and gastric feeding tube placement. Their home medication regimen included a multivitamin, calcium carbonate, and levalbuterol 1 unit dose nebulized every 8 hours. Lasix had been added during the prior hospitalization.
MW was placed on 6 liters humidified, high-flow nasal canula oxygen (NC O2), achieving a spO2 of 93-98%. […] pulmonary toilet regimen consisted of percussor chest physiotherapy every four hours and postural drainage. On day 4 of admission, day 14 of oxygen requirement, nebulized 20% n-acetyl cysteine (NAC) every eight hours was added. Oxygen requirement began to improve over the next 24 hours, weaning to 2 LPM NC O2, but returned to 3 LPM when […] remained persistently below spO2 93%. Nebulized Dornase Alfa 2.5 mg every twelve hours was added on day 7, day 17 of oxygen requirement. Oxygen requirement remained at 3 LPM with frequent desaturations to the mid 80's despite the intensification of mucolytic therapy.
On day 8, the previous treatments were discontinued and the essential oil mixture described in TABLE 1, above, including Lavandula latifolia (spike lavender), Thymus mastichina (Spanish marjoram), Abies balsamea (balsam fir), and Mentha×piperita (peppermint) was nebulized at the parents' request. Three drops were applied to a fibrous filter inserted into the base of a fan diffuser (Fan Fuser, Cinegraph, Inc. Seal Beach, Calif.). The mixture was diffused every six hours into the room and passively inhaled by MW. Oxygen requirement was reduced to 1.5 LPM within 12 hours. […] MW was weaned to ¼ LPM NC O2 on the second day of use wand discharged home with an spO2 of 97%, on day 10 of admission, day 20 of oxygen requirement.

CC12CCC(CC1)C(C)(C)O2 [eucalyptol, 1,8 cineole]
Steroid-sparing effect [1]: steroid-sparing effects

CC(=O)N[C@@H](CS)C(=O)O [n-acetyl cysteine (NAC), N-Acetyl Cysteine]
Oxygen requirement returned to ([2]; on NAC, when they remained persistently below spO2 93%): 3 LPM
Oxygen requirement (NC O2) ([2]; over the next 24 hours after adding nebulized 20% NAC every eight hours, from 6 liters high-flow): 2 LPM
Overall response of oxygen requirement to treatment [2]: insufficient or worsening response

B1: Dornase Alfa: recombinant human DNase which decreases the viscoelasticity of mucous (protein, UniProt P24855 23-282, looked up)
Deoxyribonuclease-1: LKIAAFNIQTFGETKMSNATLVSYIVQILSRYDIALVQEVRDSHLTAVGKLLDNLNQDAPDTYHYVVSEPLGRNSYKERYLFVYRPDQVSAVDSYYYDDGCEPCGNDTFNREPAIVRFFSRFTEVREFAIVPLHAAPGDAVAEIDALYDVYLDVQEKWGLEDVMLMGDFNAGCSYVRPSQWSSIRLWTSPTFQWLIPDSADTTATPTHCAYDRIVVAGMLLRGAVVPDSALPFNFQAAYGLSDQLAQAISDHYPVEVMLK
Desaturations (spO2) ([2]; frequent desaturations despite intensified mucolytic therapy (NAC plus Dornase Alfa)): mid 80's
Oxygen requirement ([2]; nebulized 2.5 mg every twelve hours added on day 7, on top of NAC): 3 LPM
Overall response of oxygen requirement to treatment [2]: insufficient or worsening response

Reference: patent publication US20090169487A1, “Essential Oil Diffusion” (priority 2007, published 2009)
